Reference: patent publication US20100069297A1, “Selective Inhibition of TLR4 Signaling” (priority 2005, published 2010)

Key:
Format in all cases: cell-based, mouse
[1] = system: TLR4 signaling (LPS-induced IL-1β, MIP-1β, IFN-β, RANTES mRNA); assay: LPS-induced gene expression in primary murine macrophages, real-time PCR
Description: FIG. 1. Effect of blocking peptides on the cytokine induction by LPS. Thioglycollate-elicited primary murine macrophages were preincubated in the presence of 40 μMof BP for one hour before stimulation with 10 ng/ml of LPS. (A) Quantitative real-time PCR analysis of gene expression. (B) Secretion of IL-1β and IL-6. Concentration of the cytokines was measured after overnight incubation of the cells in the presence of LPS and the peptides. (C) Sensitivity of the LPS-stimulated expression of IFN-β and IL-1β mRNA to varying concentrations of TRAM and MyD88 BP. Total mRNA was isolated 1 hour after LPS stimulation (A and C). *p<0.05; **p<0.01.
FIG. 6. Effect of mutant TRAM BB loop peptides on LPS-induced activation of IL1-β and IFN-β mRNA. Details of the experiments are as described in the legend for FIG. 1, except for the cells were preincubated with peptides only for 30 minutes.
C3H/OuJ mice were purchased from the Jackson Laboratory (Bar Harbor, Me.). Thioglycollate-elicited peritoneal macrophages were harvested and cultured in the presence of E. coli K235 LPS or Pam3Cys as described previously (Salkowski et al., 1999, J. Immunol. 164, 1529).
(§1) Total cellular RNA was extracted from macrophage cultures as described elsewhere and reversed transcribed using AMV Reverse Transcriptase (Promega, Madison, Wis.) and poly-T priming as recommended by the manufacturer. The resulting cDNA was quantified by real time PCR using SYBR Green PCR Master Mix (Applied Biosystems) and ABI Prism 7900HT cycler. Primers for detection of IL-1β, IFN-β, MIP-1β, […]RANTES, and HPRT mRNAs were designed using the Primer Express 2.0 program (Applied Biosystems). Relative gene expression was calculated using ΔCt method with HPRT as a housekeeping gene (1.8̂(CtHPRT−CtGene)) Statistical analysis was performed by one way ANOVA with repeated measures, followed by Dunnett's multiple comparison post hoc test with p≦0.05 chosen as the level of significance.
Mice with targeted mutations in MyD88 (Kawai et al., 2001, supra; Toshchakov et al., 2002, supra) or TIRAP (Yamamoto et al., 2002, Nature 420, 324) retain the capacity to signal through the MyD88-independent pathway. […] Therefore, the first question we sought to address experimentally is whether interactions of the BB-loops of the TIR domains of these adapters affect protein interactions leading to gene expression. To this end, we designed cell permeable peptides whose sequences correspond to the BB-loops of each adapter molecule and measured the ability of each BP to interfere with the induction of immediate response genes induced via MyD88-dependent and independent pathways. […] All BB-loop-containing peptides exerted an inhibitory effect on LPS-induced expression of MyD88-dependent IL-1β and […], as well as MyD88-independent IFN-β and RANTES mRNA, as measured by real-time PCR (FIG. 1A).

[2] = system: TLR4 signaling (LPS-induced phosphorylation of ERK, JNK, p38); assay: LPS-stimulated activation of MAPKs (pERK, pJNK, pP38), Western blot; settings: 40 μM, 1 h preincubation, LPS 10 ng/ml
Description: (§2) FIG. 2. Effect of blocking peptides on the LPS-stimulated activation of MAPKs and Tyr701 STAT-1. Ten μg of total protein was loaded per lane. A representative blot of three separate experiments is shown. Other details are given in the Materials and Methods section and legend for FIG. 1.
(§3) FIG. 4. Comparative effect of BPs on TLR2-vs. TLR4-mediated activation of MAPKs (A) and IL-1β mRNA expression (B). For Western blot analysis, 4.5 x10^6 primary macrophages were preincubated without or with 40 μM BP and stimulated for 30 min with LPS (10 ng/ml) or Pam3Cys (P3C; 150 ng/ml). The results shown are a representative blot of three separate experiments. Experimental details for FIG. 4B are the same as reported in the legend to FIG. 1A.
FIG. 5. Effect of mutated TRAM BB loop peptides on LPS-induced activation of ERK. Details of the experiment are as in legend for FIG. 4, except for the cells were preincubated with peptides only for 30 minutes.
(§4) SDS-PAGE and Western blot analysis were performed as described previously (Medvedev et al., 2001, J. Immunol. 167, 2257) with minor modifications. Antibodies for detection of activated MAPKs (pERK, pJNK and pP38) were purchased from Cell Signaling Technology (Beverly, Mass.). IRF-1 was detected using a rabbit polyclonal antibody from Santa-Cruz (Santa Cruz, Calif.). Antibody for detection of tyrosine-701 phosphorylated STAT1 was purchased from Zymed Laboratories (San Francisco, Calif.).
Using antibodies specific for the phosphorylated (activated) forms of JNK, ERK, and p38, we next sought to examine the effect of BB-loop-containing inhibitory peptides on LPS-stimulated activation of MAPKs. LPS induces quick and transient activation of MAPKs in primary macrophages (FIG. 2A) that was not affected by the addition of CP. […] The TIRAP BP was the weakest BP; all MAPKs were activated in the presence of it, although to a lesser extent when compared to CP.

[3] = system: TLR4 signaling (LPS-induced STAT-1 phosphorylation); assay: LPS-induced phosphorylation of STAT-1, Western blot; settings: 40 μM BP
Description: as §2, §4

[4] = system: TLR4 signaling (IRF-3 dimerization); assay: LPS-induced dimerization of IRF-3, native PAGE; settings: 100 ng/ml LPS, 1.5 hr
Description: (§5) FIG. 3. Effect of blocking peptides on activation of IRF-3 and IRF-1. […] Primary mouse macrophages were stimulated with 100 ng/ml of LPS. Seventeen μg of total protein was loaded per lane of the native gel. Other details are as described in the legend for FIG. 1.
Native PAGE for detection of IRF-3 activation was performed with minor modifications (Iwamura et al., 2001, Genes Cells 6, 375). One×10^7 thioglycollate-elicited cells were plated into a 6 cm dish and washed with PBS to remove non-adherent cells. Primary macrophages were stimulated with 100 ng/ml of LPS for 1.5 hr and lysed in buffer containing 50 mM TRIS-HCl pH 7.5, 150 mM NaCl, 1 mM EDTA, 1% NP-40, 1 mM sodium orthovanadate and 1× Complete protease inhibitor cocktail (Roche, Mannheim, Germany). Lysates were mixed with native lysis buffer (Bio-Rad, Hercules, Calif.) supplemented with 1% deoxycholate. Fifteen to 20 μg protein per lane was electrophoresed on a non-reducing gel and immunoblotted. IRF-3 dimers and monomers were detected using rabbit anti-IRF-3 antibody (Zymed Laboratories) by Western analysis.
Interferon Regulatory Factors (IRFs) were first identified as important transcriptional mediators of the antiviral immune response (reviewed in Taniguchi et al., 2001, Annu. Rev. Immunol. 19, 623). Later, it was recognized that this family of transcription factors plays an essential role in signal transduction mediated by different TLRs. IRF-1 is regulated transcriptionally by signaling from different TLRs, as well as by cytokines induced by TLR engagement (e.g., IL-1, TNF, and IFN-β) (Fujita et al., 1989, Proc. Natl. Acad. Sci. USA 86, 9936). In contrast, IRF-3 is constitutively expressed in many cell types (Au et al., 1995, Proc. Natl. Acad. Sci. USA 92, 11675). Upon stimulation through TLR4 or TLR3, IRF-3 is phosphorylated at multiple sites in its C-terminus, and this modification enables it to dimerize and translocate to the nucleus where it targets IRF-3-responsive genes (Kawai et al., 2001, supra; Lin et al., 1999, Mol. Cell. Biol. 19, 2465).

[5] = system: TLR4 signaling (IRF-1 protein); assay: LPS-induced upregulation of IRF-1 protein, SDS-PAGE/Western; settings: 100 ng/ml LPS, 1.5 h
Description: as §5, §4
Importantly, MyD88 knockout macrophages are capable of inducing IRF-1 mRNA (Yamamoto et al., 2003, supra).

[6] = system: TLR2 signaling (Pam3Cys-induced IL-1β mRNA); assay: Pam3Cys-induced cytokine mRNA expression, real-time PCR; settings: 40 μM, Pam3Cys
Description: as §3, §1
Similar to their effect on activation of MAPKs, BPs were much weaker inhibitors with respect to Pam3Cys- vs. LPS-induced expression of IL-1β mRNA.

Sequence: RQIKIWFQNRRMKWKKVSDRDVLPGTCVWS (MyD88 blocking peptide) [MyD88-BP]
- inhibitory effect on LPS-induced expression of IL-1β, MIP-1β, IFN-β and RANTES mRNA ([1]; 40 μM BP, 1 h preincubation, 10 ng/ml LPS, mRNA 1 h after LPS): comparable or only slightly less inhibitory
- IL-1β mRNA expression in LPS-stimulated cells, of the level detected in the presence of the CP ([1]; 40 μM, LPS 10 ng/ml): < 5%
- effect on LPS-induced activation (phosphorylation) of MAPKs (ERK, JNK) [2]: strongly blocked
- inhibition of LPS-induced Tyr701 phosphorylation of STAT-1 [3]: highly effective
- inhibition of LPS-induced dimerization of IRF-3 [4]: significantly inhibited
- effect on LPS-induced upregulation of IRF-1 protein [5]: strongest inhibitors
- IL-1β gene expression in Pam3Cys-stimulated cells, of control levels [6]: approximately 25%
- effect on Pam3Cys-induced expression of IL-1β mRNA [6]: statistically significant inhibitory effect
